Measured values as given in US20120213826A1, “Use of Pro-Inflammatory Compounds for Promoting Bone Formation” (Imperial Innovations Limited, priority 2009, published 2012).
“Also recorded” adds a separate entry of the source. Read-outs that look alike come from different tables or passages of the source.

Key:
[1] = system: murine open tibial fracture; assay: Murine open tibial fracture model, periosteally stripped (histology, CT scans); assay type: in vivo, C57BI/6 mice; details: for fracture healing: 1-MT, 20 μl in PBS at fracture site; for healing of tibial fractures by CT scans: 28 days post injury, local administration at fracture site (TNFα 50 ng/kg and HMGB1 at time of fracture and 24 hr later) (FIG. 19, 30)
Aqueous solubility = assay type: physicochemical
[2] = system: muscle-derived stromal cells (MDSC); assay: MDSC migration through a transwell membrane; assay type: cell-based, human; details: for migration of MDSC: 8 μm transwell, 36 hours, recombinant cytokine in human serum-containing media (FIG. 27B)
Procedure: Migration of 1×10^4 MDSC through an 8 μm pore transwell membrane over 36 hours, in response to fracture supernatant with the addition of AbTNF-α, AbIL-6 and AbIL-1β. The IgG^1 immunoglobulin was used as the antibody control. B: Migration in response to rhTNF-α, rhIL-6 and rhIL-1β in human serum-containing media. Results represent change in cell number, expressed as a percentage of the supernatant, or media only control. Each experiment was performed 3 times (n=3) using 3 fracture supernatants (in A). Results represent mean of 3 experiments ±SEM. *: P<0.05; **: P<0.01; ***: P<0.001; 1-way ANOVA with Bonferroni's multiple comparison test.
MDSC must be recruited to the fracture site from adjacent muscle. Next we assessed the efficacy of the pro-inflammatory cytokines in attracting MDSC in vitro using a transwell assay. 1×10^4 MDSC were seeded onto a 8 μm transwell membrane in serum free media. Next day, the transwell membrane was added to a well containing 10% human serum-containing media +IL-1β, IL6 and TNFα at the end concentrations shown. At 24 hrs the membrane was cleared of any cells on the seeded side, fixed and stained. IL-1β appeared not promote MDSC chemotaxis.
500 μl serum free media was added to each well of a 24 well plate. 8 μm pore transwell membranes (VWR International Ltd) were then added to the wells. 1×10^4 MDSC in serum free media were added to the upper chamber of each transwell membrane. At 12 hours the serum-free media was replaced with test or control media or supernatant and incubated at 37° C. for 36 hours. The upper chambers were then cleared of cells and cell debris using a cotton bud, in sweeping motions. The membrane was then washed and fixed using 10% neutral buffered formalin for 1 hour. After washing, the membrane was then added to a 1% crystal violet solution for 1 hour. After further washing, the membranes were viewed under light microscopy at 20 times magnification, using an Olympus CKX41 microscope with a QICAM camera, (QIMAGING, GT vision LLC). The number of cells present on the underside of the transwell membrane in any random field was counted 3 times and the mean calculated. Cell migration was calculated against the supernatant or human serum-containing (control) media and the number expressed as a percentage relative to the control media.

[3] = system: muscle-derived stromal cells (MDSC); assay: MDSC proliferation (CellTiter-Glo luminescent cell viability assay); assay type: cell-based, human; details: Example 3; for MDSC proliferation: 1, 3 and 5 days in human serum-containing media ± recombinant human cytokine (FIG. 28); for cell proliferation in excess of the media-only control: recombinant human BMPs, data not shown
Procedure: CellTiter-Glo® luminescent cell viability assay for MDSC in culture with A: TNF-α, B: IL-6 and C: IL-1β. 2.5×10^3 cells were cultured in triplicate for 1, 3 and 5 days in human serum-containing media ± recombinant human cytokine at the concentration indicated. The number of viaBIe cells in culture was determined using the assay, where luminescent signal is directly proportional to the concentration of ATP from viaBIe cells.
In order to test this hypothesis, proliferation of MDSC in human serum-containing media with rhTNF-α, rhIL-6 and rhIL-1β was tested using the CellTiter-Glo® luminescent cell viability assay was used (Promega Corp., Madison, Wis.).
This method assays the number of viaBIe cells in culture, by measuring adenosine triphosphate (ATP), where the luminescent signal is directly proportional to the number of ATP present.

[4] = system: muscle-derived stromal cells (MDSC); assay: Bone nodule formation by MDSC (alizarin red staining); assay type: cell-based, human; details: Example 3; recombinant cytokine at optimal dose for first 3 days, human serum-containing media (FIG. 26E)
Excerpt: (§1) FIG. 26 TNF-α and IL-6 promote osteogenic differentiation of MDSC A-D: ALP quantification assays after culture of 1×10^4 MDSC for 7 days in a 96-well plate in triplicate with: A: fracture supernatant, ±antibody neutralization of BMPs 2/4 7 and to TGF-β. The immunoglobulin isotype controls used included IgG^1 for AbBMP-2/4 and AbTGF-β, and IgG^2B for Ab-BMP-7. B: human serum containing culture medium with the addition of recombinant human BMPs and TGF-β. C: fracture supernatant±antibody neutralization of TNF-α, IL-6 and IL-1β. The IgG^1 immunoglobulin was used as the antibody isotype control. D: human serum-containing culture medium with the addition of recombinant human TNF-α, IL-6 and IL-1β. E: Alizarin red staining for bone nodule formation after culture of 1×10^4 MDSC in human serum-containing media. Recombinant human cytokine at the optimal dose indicated by D, was added for the first 3 days ONLY, and the cells were subsequently cultured in media for 32 days. A representative image from a single well is shown. All experiments were performed 3 times, in triplicate (n=3) using MDSC from 3 donors. Values for A-D represent a mean from 3 experiments ±SEM, using supernatant from 3 donors in A and C. *: P<0.05; **: P<0.01; ***: P<0.001; 1-way ANOVA with Bonferroni's multiple comparison test in A and C and with Dunnett's multiple comparison test against the media only control in B and D.
1×10^4 MDSC were added to wells of a 24-well plate in triplicate. The cells were cultured for 35-40 days in osteogenic media (DMEM with 10% fetal calf serum and 1% penicillin/streptomycin also containing 100 nM dexamethasone (SIGMA), 1 mM β-glycerol phosphate and […] ascorbic acid), supernatant or media containing recombinant cytokines (with one media change per week) the cells were fixed with 2 ml 10% neutral buffered formalin at room temperature for 15 min. The plate was then washed twice with excess PBS. 1 ml filtered 40 mM alizarin red solution (pH 4.1) was added to each well and agitated at room temperature for 30 minutes. The excess dye was then aspirated and the plate washed four times in distilled water with gentle agitation. Finally, the plates were turned upside-down on paper to dry. Bone nodules appeared red under light microscopy. Images were taken at 20 times magnification and performed as above.

[5] = system: muscle-derived stromal cells (MDSC); assay: ALP quantification assay, osteogenic differentiation of cultured MDSC; assay type: cell-based, human; details: for ALP expression (osteogenic differentiation) in cultured MDSC: Example 1, exogenous recombinant human factor added to MDSC culture (FIG. 8, 10, 12); for ALP expression by MDSC: 7 days in human serum-containing media with recombinant human factor (FIG. 26B, 26D)
Excerpt: as §1, with “The” for “FIG. 26 TNF-α and IL-6 promote osteogenic differentiation of MDSC A-D: ALP quantification assays after culture of 1×10^4 MDSC for 7 days in a 96-well plate in triplicate with: A: fracture supernatant, ±antibody neutralization of BMPs 2/4 7 and to TGF-β. The”, “Recombinant human cytokine at the optimal dose indicated by D, was added for the first 3 days ONLY, and the cells were subsequently cultured in media for 32 days.” left out
To investigate the fracture-derived stimulus for osteogenic differentiation of MDSC, fracture supernatants were prepared using human tibial fracture fragments obtained within 24 hours of injury (ethics approval number—COREC No: 07/Q0411/30). […] Bone fragments were obtained from either fractured tibial fragments or non-traumatically cut bone slices. These were then incubated in serum free DMEM+Glutamax media for 24 hours. The supernatant was then filter sterilised to remove any contaminants and cellular debris. MDSC were then cultured in the presence of either control media, osteogenic media, fracture supernatant or non-fracture supernatant for 7 days before lysis and quantification of ALP levels.
1×10^4 human MDSC were added to wells of a 96 well plate in triplicate. At 24 hrs the media was pipetted off and replaced by 200 μl test media. The media was changed every 3 days. At 7 days the media was removed and the cells lysed in 20 μl NP-40 lysis buffer. An ALP quantification assay (WAKO pure chemical Ltd.) was used. Calibration solution from the assay was serially diluted to make concentrations of 0.25, 0.125 and 0.0625 mmol/L. To empty wells, 20 μl of each calibration solution was added. To another, dH2O was added. 100 μl reagent (1 taBIet per 5 ml buffer solution) was added to each well, and incubated at 37° C. for 20 minutes. 80 μl stop solution was then added to each well and the plate was read using an ELISA spectrometer at 405 nm wavelength. The concentration of ALP in the test wells was extrapolated from the standard curve.

Q: With Cn1cc(C[C@H](N)C(=O)O)c2ccccc21 [1-MT, 1-methyl tryptophan, reference compound] as the molecule, how does the fracture healing ([1]; histology day 14 (FIG. 21)) read?
A: accelerated fracture healing

Q: What about the fracture healing ([1]; histology day 14 (FIG. 21), listed as 1-methyl tryptophan) of the same molecule?
A: dose dependent acceleration of fracture healing

Q: What about the “healing of tibial fractures by CT scans” value [1] of the same molecule?
A: trend to improved healing but did not reach statistical significance

Q: What about the “dose of greatest response (maximal dose tested)” value ([1]; FIG. 21) of the same molecule?
A: 500 µg/mL

Q: What about the “concentrations giving accelerated fracture healing” value ([1]; within the range tested (0.5-5 mg/kg), histology day 14 (FIG. 21)) of the same molecule?
A: ≥ 500 µg/mL

Q: What about the aqueous solubility (Aqueous solubility) of the same molecule?
A: poorly soluBIe in aqueous solutions

Q: And the aqueous solubility (Aqueous solubility; listed as 1MT)?
A: poor aqueous solubility

Q: For “IL-1β: pro-inflammatory cytokine, recombinant human IL-1β”, which “migration of MDSC” value ([2]; Example 3) is on record?
A: did not appear to promote MDSC migration

Q: And the MDSC proliferation [3]?
A: do not promote MDSC proliferation

Q: And the “bone nodule formation by MDSC” value [4]?
A: did not stimulate bone nodule formation

Q: What about the “ALP expression (osteogenic differentiation) in cultured MDSC” value [5] of the same molecule?
A: dose-dependent stimulation of ALP expression

Q: What about the “concentration of peak ALP expression by MDSC” value ([5]; Example 3, variable between donor cell populations (FIG. 26D)) of the same molecule?
A: 100 µg/mL

Q: Which results are given for “IL-6: pro-inflammatory cytokine, recombinant human IL-6”?
A: chemotaxis / migration of MDSC ([2]; Example 1, transwell, 10% human serum-containing media, 24 hrs (FIG. 14)): promote chemotaxis of MDSC; migration of MDSC ([2]; Example 3): chemo attractant for MDSC; optimal concentration for MDSC migration ([2]; Example 3, transwell, 36 hours (FIG. 27B)): 1 ng/mL; MDSC proliferation [3]: do not promote MDSC proliferation; bone nodule formation by MDSC [4]: promoted de novo bone formation; ALP expression (osteogenic differentiation) in cultured MDSC [5]: dose-dependent stimulation of ALP expression; ALP expression by MDSC ([5]; Example 3): increased with the dose through the range tested

Q: With TGF-β as the molecule, how does the “ALP expression (osteogenic differentiation) in cultured MDSC” value [5] read?
A: promotes osteogenic differentiation

Q: What about the “ALP expression by MDSC” value ([5]; Example 3) of the same molecule?
A: did not induce ALP expression

B1: HMGB1: damage associated molecular pattern molecule (alarmin), RAGE ligand protein (protein, UniProt P09429 1-215, looked up)
High mobility group protein B1: MGKGDPKKPRGKMSSYAFFVQTCREEHKKKHPDASVNFSEFSKKCSERWKTMSAKEKGKFEDMAKADKARYEREMKTYIPPKGETKKKFKDPNAPKRPPSAFFLFCSEYRPKIKGEHPGLSIGDVAKKLGEMWNNTAADDKQPYEKKAAKLKEKYEKDIAAYRAKGKPDAAKKGVVKAEKSKKKKEEEEDEEDEEDEEEEEDEEDEDEEEDDDDE
Q: Which “healing of tibial fractures by CT scans” value [1] does the source give for B1 here?
A: statistically significantly enhanced healing; also recorded: accelerates fracture healing

B2: IFN-γ: proinflammatory cytokine, recombinant human Interferon-gamma (protein, UniProt P01579 24-161, looked up)
Interferon gamma: QDPYVKEAENLKKYFNAGHSDVADNGTLFLGILKNWKEESDRKIMQSQIVSFYFKLFKNFKDDQSIQKSVETIKEDMNVKFFNSNKKKRDDFEKLTNYSVTDLNVQRKAIHELIQVMAELSPAAKTGKRKRSQMLFRG
Q: With B2 as the molecule, how does the “ALP expression (osteogenic differentiation) in cultured MDSC” value [5] read?
A: modest dose-dependent stimulation of osteogenesis

B3: BMP7: recombinant human bone morphogenetic protein 7 (protein, UniProt P18075 293-431, looked up)
Bone morphogenetic protein 7: STGSKQRSQNRSKTPKNQEALRMANVAENSSSDQRQACKKHELYVSFRDLGWQDWIIAPEGYAAYYCEGECAFPLNSYMNATNHAIVQTLVHFINPETVPKPCCAPTQLNAISVLYFDDSSNVILKKYRNMVVRACGCH
Q: What does the source list for B3?
A: cell proliferation in excess of the media-only control [3]: did not induce cell proliferation; ALP expression (osteogenic differentiation) in cultured MDSC [5]: promotes osteogenic differentiation; ALP expression by MDSC ([5]; Example 3): did not induce ALP expression

B4: BMP4: recombinant human bone morphogenetic protein 4 (protein, UniProt P12644 293-408, looked up)
Bone morphogenetic protein 4: SPKHHSQRARKKNKNCRRHSLYVDFSDVGWNDWIVAPPGYQAFYCHGDCPFPLADHLNSTNHAIVQTLVNSVNSSIPKACCVPTELSAISMLYLDEYDKVVLKNYQEMVVEGCGCR
Q: For B4, which “cell proliferation in excess of the media-only control” value [3] is on record?
A: did not induce cell proliferation

Q: What about the “ALP expression by MDSC” value ([5]; Example 3) of the same molecule?
A: did not induce ALP expression
